This is an account of results in paper PMC6215995 (International Journal for Parasitology: Drugs and Drug …, 2018).

Read-outs that look alike come from different tables or passages of the source. Marks after values point to notes of the source that are not given here.

Broadly, the IC50 is the concentration at which inhibition is half-maximal.

One data set relates to BGM-VN. To be noted: MTT, 24 h. The method, then:
The compounds (20 μL), at various concentrations (400–1.0 μM), were placed in the 96-well plates, incubated with the cultured cells for 24 h under a 5% CO2 atmosphere at 37 °C and then the 3-(4,5-dimethylthiazol-2-yl)-2,5-diphenyltetrazolium bromide (MTT) solution (5 mg/mL; 20 μL/well for 3 h) was used to evaluate the mitochondrial viability. The supernatants were carefully removed and 100 μL DMSO were added to each well and mixed to solubilize the formazan crystals. The optical density was determined at 570 and 630 nm (background) (SpectraMax340PC384). The cell viability was expressed as the percentage of the control absorbance in the untreated cells after subtracting the appropriate background. Each test was performed in triplicate in at least two different experiments.

In the next data set the test system is P. falciparum K1. The experiment in a line: Antiplasmodial SYBR green assay, multidrug-resistant strain. The settings on record: for Selective index K1: ratio between MDL50 and IC50, K1. In kind it is cell-based. The method, then:
The freshly sorbitol synchronized ring stages were immediately incubated with the test compounds at various concentrations (from 10 to 0.152 μM or 1.0–0.0152 μM) that were previously solubilized in 0.05% dimethyl sulfoxide (DMSO) (v/v) ([Lambros and Vanderberg, 1979]). […] The antiplasmodial activity of the compounds was measured through SYBR green assay ([Smilkstein et al., 2004]). Briefly, the plates were centrifuged at 700g for 5 min at room temperature to remove the medium, washed with PBS and incubated for 30 min with lysis buffer solution [2.4228 g TRIS, ultra-pure for 20 mM solution, pH 7.5; 1.8612 g of EDTA 5 mM ultrapure for 5 mM solution; 80 μg Saponin (0.008% w/v); 800 μL of Triton X-100 (0.08% v/v); water Type I] and SYBR green I DNA stain (1:20000). The fluorescence of uninfected erythrocytes was considered as background. Fluorescence was measured on fluorimeter (SpectraMax340PC384) at 485/535 nm.
(§1) The half-maximal drug inhibitory concentration (IC50) was estimated by curve fitting using the software from the OriginLab Corporation (USA) and compared to the parasite growth in the drug-free medium.

For another data set, the system named is P. berghei NK65. Briefly: Suppressive test in P. berghei infected mice. In kind it is in vivo. The settings on record: for Mice survival in comparison with the non-treated control / Parasitemia on day 5 / Parasitemia %reduction on day 5 / Parasitemia on day 7 / Parasitemia %reduction on day 7 / Parasitemia on day 9 / Parasitemia %reduction on day 9 / Parasitemia on day 11 / Parasitemia %reduction on day 11 / Parasitemia on day 13 / Parasitemia %reduction on day 13 / Parasitemia on day 15 / Parasitemia %reduction on day 15 / Survival / Reduction of parasitemia until day 11 after infection: three consecutive days; for Mice survival in comparison with the non-treated control: Mann-Whitney test p < 0.05; for Parasitemia %reduction on day 5: day 5, vs non treated; for Parasitemia %reduction on day 7: day 7, vs non treated; for Parasitemia %reduction on day 9: day 9, vs non treated; for Parasitemia %reduction on day 11: day 11, vs non treated; for Parasitemia %reduction on day 13: day 13, vs non treated; for Parasitemia %reduction on day 15: day 15, vs non treated. The method, then:
The P. berghei NK65 strain was obtained as a donation from New York University and maintained through weekly blood passages. For the experiments, groups of up to 30 mice were inoculated i.p. with 1 × 10^5 infected erythrocytes, kept together for about 24 h, then randomly distributed into groups of five per cage. […] On days 5–15 after the parasite inoculation, blood was taken from the tail of each mouse and used to prepare thin smears that were methanol-fixed, Giemsa-stained, and examined microscopically (1000×) to determine parasitemia. […] The experiments were performed twice.

A further data set concerns P. falciparum 3D7. The experiment in a line: Antiplasmodial SYBR green assay, CQ-sensitive strain. In kind it is cell-based. The settings on record: for Selective index 3D7: ratio between MDL50 and IC50, 3D7. The method, then: Briefly, the plates were centrifuged at 700g for 5 min at room temperature to remove the medium, washed with PBS and incubated for 30 min with lysis buffer solution [2.4228 g TRIS, ultra-pure for 20 mM solution, pH 7.5; 1.8612 g of EDTA 5 mM ultrapure for 5 mM solution; 80 μg Saponin (0.008% w/v); 800 μL of Triton X-100 (0.08% v/v); water Type I] and SYBR green I DNA stain (1:20000). The fluorescence of uninfected erythrocytes was considered as background.
as §1

A further data set concerns β-hematin formation. Briefly: Inhibition of β-hematin formation assay. In kind it is biochemical. The settings on record: MOG lipid catalyst, sodium acetate pH 4.8, 37 °C, 2 h; read-out: β-hematin inhibition IC50 (mM)± SD. On the procedure:
The assay was performed using a lipid as a catalyst to promote crystallization ([Pisciotta et al., 2007]; [Fitch et al., 1999]). Briefly, drug stock solutions were prepared in DMSO and were used at a final concentration of up to 30 mM. […] After incubation for 30 min at room temperature, the amount of solubilized monomeric heme was determined by measuring the absorbance at 405 nm. […] The absorbance was read at 405 nm to determine the total amount of heme present in each well. The inhibition of heme crystallization was determined as a function of the amount of monomeric heme that was not crystallized divided by the total amount of heme present in the assay mixture. The results are expressed as IC50 values based on the percentage inhibition of β-hematin formation by the compounds […] and DAQ.

[1] abbreviates: K1 multidrug-resistant strain, read-out: IC50 (nM ± SD) P. falciparum K1.
The mark [2] stands for this setting: oral 50 mg/kg, followed until day 30.
[3] abbreviates: 3D7 CQ-sensitive strain, read-out: IC50 (nM ± SD) P. falciparum 3D7.
Setting [4] is: 20 mg/kg, followed until day 30.
Where [5] appears, read: Plasmodium falciparum, K1 multidrug-resistant strain, read-out: IC50 (nM ± SD) P. falciparum K1.
[6] abbreviates: Plasmodium falciparum, 3D7 CQ-sensitive strain, read-out: IC50 (nM ± SD) P. falciparum 3D7.

Take “N-(prop-2-enyl)-7-chloroquinoline-4-amine [PCQ]”: the “MLD50 BGM-VN” value in the data set with BGM-VN is 407 ± 185 µM. Also, the IC50 in the data set on P. falciparum K1 (setting [1]) was determined as 405 ± 32 nM. Also, in the data set on P. berghei NK65 (oral 50 mg/kg), the “Mice survival in comparison with the non-treated control” value is listed as “not increased”, the “Parasitemia on day 5” value is 1.04, the “Parasitemia on day 7” value amounted to 4.83 and the “Parasitemia %reduction on day 7” value is 10%. Moreover, in the data set with P. berghei NK65 (oral 50 mg/kg), the “Parasitemia on day 9” value is listed as 5.75, the “Parasitemia %reduction on day 9” value came to 8%, the “Parasitemia on day 11” value is recorded as 7.5 and the “Parasitemia %reduction on day 11” value is listed as 32%. Further, in the data set with P. berghei NK65 (oral 50 mg/kg), the “Parasitemia on day 13” value was 7.0, the “Parasitemia %reduction on day 13” value turned out to be 32%, the “Parasitemia on day 15” value turned out to be 34.5 and the “Parasitemia %reduction on day 15” value stood at 0%. In the data set with P. berghei NK65 (oral 50 mg/kg, 50 mg/kg), the “Parasitemia %reduction on day 5” value amounted to 73%. Moreover, the Survival in the data set with P. berghei NK65 (setting [2]) is 17 ± 8. For the same molecule, the IC50 in the data set on P. falciparum 3D7 (setting [3]) was determined as 377 ± 14 nM. Also, in the data set on β-hematin formation, the concentration for half-maximal inhibition (IC50) was 3 ± 3 mM.

With `CCN(CC)CCCC(C)Nc1ccnc2cc(Cl)ccc12` (centres unmarked) [CQ, Chloroquine, reference compound], in the data set on P. falciparum K1 (Plasmodium falciparum, K1, read-out: IC50 (nM ± SD) P. falciparum K1), the IC50 is 177 ± 20 nM. Moreover, in the data set with P. berghei NK65 (setting [4]), the Survival in words entry is “survived until the last day of the experiment” and the Survival is given as >30 ^b. Further, in the data set on P. berghei NK65 (20 mg/kg), the “Parasitemia on day 5” value is reported as 0.00, the “Parasitemia %reduction on day 5” value turned out to be 100%, the “Parasitemia on day 7” value worked out at 0.00 and the “Parasitemia %reduction on day 7” value was 100%. Moreover, in the data set on P. berghei NK65 (20 mg/kg), the “Parasitemia on day 9” value came out at 0.00, the “Parasitemia %reduction on day 9” value is listed as 100%, the “Parasitemia on day 11” value stood at 0.00 and the “Parasitemia %reduction on day 11” value is 100%. For the same molecule, in the data set on P. berghei NK65 (20 mg/kg), the “Parasitemia on day 13” value is on record as 0.00, the “Parasitemia %reduction on day 13” value was determined as 100%, the “Parasitemia on day 15” value worked out at 0.00 and the “Parasitemia %reduction on day 15” value came out at 100%. In addition, the Parasitemia in words result in the data set on P. berghei NK65 (20 mg/kg, until the last day of evaluation (day 15)) was “no parasitemia”. Further, the IC50 in the data set with P. falciparum 3D7 (Plasmodium falciparum, 3D7, read-out: IC50 (nM ± SD) P. falciparum 3D7) was 36 ± 12 nM. In addition, the IC50 with β-hematin formation was found to be 0.76 ± 0.46 mM.

Turning to “N-(4-(dimethylamino)but-2-enyl)-7-chloro-quinolin-4-amine [DAQ]”, in the data set on BGM-VN, the “MLD50 BGM-VN” value amounted to 1481 ± 39 µM. The IC50 in the data set on P. falciparum K1 (setting [1]) stood at 50 ± 3 nM. For the same molecule, in the data set on P. berghei NK65 (oral 50 mg/kg), the “Reduction of parasitemia until day 11 after infection” value was 100%, the “Mice survival in comparison with the non-treated control” value is reported as “significantly higher”, the “Parasitemia on day 5” value came out at 0.00 and the “Parasitemia %reduction on day 5” value is 100%. In the data set with P. berghei NK65 (oral 50 mg/kg), the “Parasitemia on day 7” value came to 0.00, the “Parasitemia %reduction on day 7” value is listed as 100%, the “Parasitemia on day 9” value was 0.00 and the “Parasitemia %reduction on day 9” value amounted to 100%. In the data set with P. berghei NK65 (oral 50 mg/kg), the “Parasitemia on day 11” value was determined as 0.00, the “Parasitemia %reduction on day 11” value is reported as 100%, the “Parasitemia on day 13” value amounted to 0.77 and the “Parasitemia %reduction on day 13” value worked out at 92%. For the same molecule, in the data set with P. berghei NK65 (oral 50 mg/kg), the “Parasitemia on day 15” value stood at 3.67 and the “Parasitemia %reduction on day 15” value was determined as 82%. Besides, in the data set with P. berghei NK65 (setting [2]), the Survival is 28 ± 1 ^b. Besides, in the data set with P. falciparum 3D7 (setting [3]), the IC50 was found to be 46 ± 4 nM. Also, the IC50 in the data set with β-hematin formation is 0.15 ± 0.03 mM.

Take `NCCNc1ccnc2cc(Cl)ccc12` [CEQ, N-(2-aminoethyl)-7-chloroquinolin-4-amine]: in the data set with BGM-VN, the “MLD50 BGM-VN” value was determined as 179 ± 40 µM. Besides, in the data set on P. falciparum K1 (setting [5]), the concentration for half-maximal inhibition (IC50) is 218 ± 44 nM. Besides, in the data set with P. falciparum K1, the “Selective index K1” value was 821. Besides, in the data set on P. berghei NK65 (oral 50 mg/kg), the “Reduction of parasitemia until day 11 after infection” value worked out at 100%, the “Mice survival in comparison with the non-treated control” value was “significantly higher”, the “Parasitemia on day 5” value came out at 0.00 and the “Parasitemia %reduction on day 5” value was found to be 100%. In addition, in the data set with P. berghei NK65 (oral 50 mg/kg), the “Parasitemia on day 7” value stood at 0.00, the “Parasitemia %reduction on day 7” value came out at 100%, the “Parasitemia on day 9” value stood at 0.00 and the “Parasitemia %reduction on day 9” value was found to be 100%. In addition, in the data set on P. berghei NK65 (oral 50 mg/kg), the “Parasitemia on day 11” value worked out at 0.00, the “Parasitemia %reduction on day 11” value turned out to be 100%, the “Parasitemia on day 13” value is 0.57 and the “Parasitemia %reduction on day 13” value came to 94%. In the data set with P. berghei NK65 (oral 50 mg/kg), the “Parasitemia on day 15” value came to 4 and the “Parasitemia %reduction on day 15” value is recorded as 80%. Besides, the Survival in the data set on P. berghei NK65 (setting [2]) is listed as 26 ± 6 ^b. The concentration for half-maximal inhibition (IC50) in the data set with P. falciparum 3D7 (setting [6]) is 273 ± 12 nM. The “Selective index 3D7” value in the data set with P. falciparum 3D7 was found to be 655. Moreover, in the data set with β-hematin formation, the half-maximal inhibitory concentration (IC50) stood at 1.2 ± 0.76 mM.

Take `O=C(O)CNc1ccnc2cc(Cl)ccc12` [GIQ, Acid 2-(7-chloroquinolin-4-ylamino) acetic]: the “MLD50 BGM-VN” value in the data set on BGM-VN was more than 1000 µM. In addition, the IC50 with P. falciparum K1 (setting [5]) was more than 10000 nM; in the data set on P. falciparum 3D7 (setting [6]), more than 10000 nM; with β-hematin formation it was 7.6 ± 0.2 mM. The “Selective index K1” value in the data set on P. falciparum K1 is on record as “Inactive”. The “Selective index 3D7” value in the data set with P. falciparum 3D7 is “Inactive”. Further, the “Activity against P. falciparum in words” value with P. falciparum 3D7 (sensitive and resistant parasites, highest dose 10 μM) was “inactive in all doses tested”.
